Four molecules from US20220313651A1, “INHIBITORS OF ZIKA VIRUS INFECTION” (priority 2019, published 2022) can be followed below.

In one data set the target is T1, ZIKV NS2B-NS3 protease (Zika virus, UniProt Q32ZE1).
T1 construct: 49-97) and NS2 protein (residues 1-185) through a covalent; made in house; host or cells: E. coli
Put plainly: ELISA binding to ZIKV NS2B-NS3 protease. The protocol:
(§1) Binding of compounds (NPs) to ZIKV full-length E (FIG. 3A), EDIII (FIG. 3B), and NS2B-NS3 (FIG. 3C) proteins, was detected by ELISA. The percent binding was reported in the presence or absence of serially diluted NPs using the formula (1-[E/EDIII-NP]/[E/EDIII])×100 (for E/EDIII binding) or (1-[NS2B-NS3-NP]/[NS2B-NS3])×100 (for NSEB-NS3 binding). […] The concentrations of ZIKV EDIII and mAbs were 1.5 and 0.5 μg/ml, respectively. […] The concentrations of substrate (Bz-Nle-Lys-Lys-Arg-AMC) and ZIKV NS2B-NS3 protein were 4 μM and 1 μg/ml, respectively. The percent inhibition of protease activity was calculated in the presence or absence of serially diluted compounds using the formula (1-[NS2B-NS3-substrate-NP]/[NS2B-NS3-substrate])×100. The IC50 values were calculated based on the percent inhibition. The data are expressed as mean±s.e.m. (n=4).
(§2) The data are expressed as mean±s.e.m. (n=4), and DMSO was used as negative control. Surface plasmon resonance (SPR) analysis of the binding between ST087010 and ZIKV EDIII (FIG. 6D) or NS2B-NS3 (FIG. 6E) protein was performed. Binding affinity was shown as KD (equilibrium dissociation constant).
(§3) The binding between the Z-medicament and ZIKV full-length E protein, EDIII protein (E residues 298-409 fused with a C-terminal human Fc), or NS2B-NS3 protease was carried out by ELISA. Briefly, ELISA plates were pre-coated with the proteins described above at 4° C. overnight, and blocked with 2% fat-free milk at 37° C. for 2 h. Serial dilutions of the Z-medicament or DMSO (control) were then added to the plates and incubated at 37° C. for 2 h. The plates were washed with PBS containing Tween-20 (PBST), and incubated at 37° C. for 1 h with ZIKV EDIII-specific human mAb ZKA64-LALA (0.5 μg/ml) (for binding to ZIKV full-length E and EDIII proteins), or mouse sera specific to ZIKV NS2B-NS3 (for binding to NS2B-NS3 protease). The plates were washed with PBST, and incubated with horseradish peroxidase (HRP)-conjugated anti-human IgG-Fab (1:3000) or anti-mouse IgG (1:3000) antibody at 37° C. for 1 h. The 3,3′,5,5′-tetramethylbenzidine (TMB) substrate was added to the plates, and the reaction was stopped by 1 N H2SO4. Absorbance at 450 nm (A450 value) was measured by ELISA microplate reader.
(§4) Briefly, ELISA plates were coated with each protein (1 μg/ml) at 4° C. overnight, and were then incubated with blocking buffer containing 2% fat-free milk in PBST at 37° C. for 2 h. The above compounds, or DMSO control, at serial dilutions were added to the plates, and incubated at 37° C. for 2 h. After three washes using PBST, the plates were incubated at 37° C. for 2 h with ZIKV EDIII-specific human mAb ZKA64-LALA (0.5 μg/ml) (for binding to ZIKV full-length E or EDIII protein), or ZIKV NS2B-NS3-specific mouse sera (for binding to NS2B-NS3 protein). After further washes, the plates were incubated with HRP-conjugated anti-human IgG-Fab (1:3,000) or anti-mouse IgG (1:3,000) antibody at 37° C. for 1 h.

In another data set the test system is Vero E6 cells. Put plainly: in vitro. To be noted: Vero E6 cells. As to the method: The cytotoxicity of the Z-medicaments in Vero E6 (ZIKV target cells) was evaluated using the Cell Counting Kit-8 (CCK8).
Briefly, compounds at 2-fold serial dilutions were added to cells (2.0×10^4/well) pre-seeded in 96-well plates. The cells were cultured at 37° C. for 3 days, and incubated with CCK8 solution, followed by measurement of absorbance at 450 nm (A450 value) using microplate reader.

Data set [1] has as its target ZIKV full-length E protein (Zika virus, UniProt Q32ZE1). The data set can be described thus: ELISA binding to ZIKV full-length E protein. As to the method: as §1, §2, §3
as §4, with “1 h. The plates were incubated with substrate TMB, and the reaction was stopped by addition of 1 N H2SO4. Absorbance at 450 nm (A450 values) was measured by an ELISA microplate reader. EC50 values were calculated.” for “1 h.”
Background: In an ELISA, binding on a coated surface is turned into a signal by an enzyme label.

Data set [2] deals with T2, ZIKV EDIII protein (E residues 298-409) (Zika virus, UniProt Q32ZE1, D679E/I627V/V603I/V629A).
T2 construct: human Fc (C)
It counts as binding. To be noted: ELISA. The protocol:
as §1, §2, §3
Briefly, ELISA plates were coated with each protein (1 μg/ml) at 4° C. overnight, and were then incubated with blocking buffer containing 2% fat-free milk in PBST at 37° C. for 2 h. The above compounds, or DMSO control, at serial dilutions were added to the plates, and incubated at 37° C. for 2 h. […] Absorbance at 450 nm (A450 values) was measured by an ELISA microplate reader. EC50 values were calculated.

Data set [3] relates to ZIKV human strain IbH 30656 (1968/Nigeria). The data set can be described thus: Plaque reduction inhibition assay in Vero E6 cells, ZIKV IbH 30656. In kind it is cell-based, Zika virus (ZIKV). To be noted: Table 7, gossypol derivatives, read-out: ZIKV strains IC50, IbH 30656. The protocol: (§5) A plaque reduction inhibition assay was carried out to measure the inhibitory activity of Z-medicaments against infections of ZIKV and DENV. […] The compound-virus mixtures were then transferred to Vero E6 cells (10^5/well) and incubated at 37° C. for 1 h.

Data set [4] relates to ZIKV human strain PAN2016 (2016/Panama). The data set can be described thus: Plaque reduction inhibition assay in Vero E6 cells, ZIKV PAN2016. In kind it is cell-based, Zika virus (ZIKV). To be noted: Vero E6 cells; Table 7, gossypol derivatives; read-out: ZIKV strains IC50, PAN2016. The protocol:
as §5

Data set [5] concerns ZIKV mosquito strain MEX 2-81 (2016/Mexico). The data set can be described thus: Plaque reduction inhibition assay in Vero E6 cells, ZIKV MEX 2-81. As to conditions: Vero E6 cells; Table 7, gossypol derivatives; read-out: ZIKV strains IC50, MEX 2-81. It counts as cell-based, Zika virus (ZIKV). The source says:
(§6) Vero E6 and LLC-MK2 cells were maintained in Dulbecco's Modified Eagle Medium (DMEM) supplemented with 8% fetal bovine serum (FBS) and penicillin and streptomycin (P/S). C6/36 cells were maintained in Eagle's Minimal Essential Medium (EMEM) supplemented with 5% FBS and P/S. ZIKV strains, including human strains PAN2016 (2016/Panama), R116265 (2016/Mexico), PAN2015 (2015/Panama), FLR (2015/Colombia), R103451 (2015/Honduras), PRVABC59 (2015/Puerto Rico), PLCal_ZV (2013/Thailand), and IbH 30656 (1968/Nigeria), mosquito strain MEX 2-81 (2016/Mexico), and rhesus macaque strain MR 766 (1947/Uganda), were used in the studies. These ZIKV strains were cultured in Vero E6 cells, and viral titers were detected by a standard plaque-forming assay. DENV human strains, including type 1: DENV-1-V1792 (2007/Vietnam), type 2: DENV-2-V594 (2006/Puerto Rico), type 3: DENV-3-V1043 (2006/Puerto Rico), and type 4: DENV-4-PR 06-65-740 (2006/Puerto Rico), were cultured in C6/36 cells, and the viral titers were determined by plaque-forming assay as described above.
(§7) A plaque reduction inhibition assay was carried out to measure the inhibitory activity of Z-medicaments against infections of ZIKV and DENV. […] The compound-virus mixtures were then transferred to Vero E6 cells (10^5/well) and incubated at 37° C. for 1 h. […] The cells were washed thoroughly with PBS, and overlaid with DMEM containing 1% carboxymethyl cellulose and 2% FBS, followed by in vitro culture at 37° C. for 4-5 days and then staining with 0.5% crystal violet.
(§8) After removal of the unbound compounds by centrifugation after addition of 3% PEG-6000, ZIKV was incubated with Vero E6 cells at 37° C. for 1 h. The cells were then washed with PBS, overlaid with DMEM containing 1% carboxymethyl cellulose and 2% FBS, and cultured at 37° C. for 4-5 days, followed by staining with 0.5% crystal violet.

Data set [6] relates to ZIKV human strain R103451 (2015/Honduras). The data set can be described thus: Plaque reduction inhibition assay in Vero E6 cells, ZIKV R103451. It counts as cell-based, Zika virus (ZIKV). As to conditions: Vero E6 cells; Table 7, gossypol derivatives; read-out: ZIKV strains IC50, R103451. The protocol:
as §5

In data set [7] the test system is ZIKV human strain PLCal_ZV (2013/Thailand). The data set can be described thus: Plaque reduction inhibition assay in Vero E6 cells, ZIKV PLCal_ZV. To be noted: Vero E6 cells; Table 7, gossypol derivatives; read-out: ZIKV strains IC50, PLCal_ZV. It counts as cell-based, Zika virus (ZIKV). The protocol: as §5
Data set [8] concerns ZIKV rhesus macaque strain MR 766 (1947/Uganda). The data set can be described thus: Plaque reduction inhibition assay in Vero E6 cells, ZIKV MR 766. In kind it is cell-based, Zika virus (ZIKV). To be noted: Vero E6 cells; Table 7, gossypol derivatives; read-out: ZIKV strains IC50, MR766. As to the method:
as §5

Data set [9] relates to ZIKV human strain R116265 (2016/Mexico). The data set can be described thus: Plaque reduction inhibition assay in Vero E6 cells, ZIKV R116265. In kind it is cell-based, Zika virus (ZIKV). As to conditions: Table 7, gossypol derivatives, read-out: ZIKV strains IC50, R116265.
Source text: as §6, §7, §8

The test system of data set [10] is ZIKV human strain PAN2015 (2015/Panama). The data set can be described thus: microbe, parasite or virus in culture. In kind it is cell-based, Zika virus (ZIKV). To be noted: Vero E6 cells; Table 7, gossypol derivatives; read-out: ZIKV strains IC50, PAN2015.
Source text: as §6, §7, §8

For data set [11], the system named is ZIKV human strain FLR (2015/Colombia). The data set can be described thus: Plaque reduction inhibition assay in Vero E6 cells, ZIKV FLR. As to conditions: Vero E6 cells; Table 7, gossypol derivatives; read-out: ZIKV strains IC50, FLR. In kind it is cell-based, Zika virus (ZIKV). The protocol:
as §5

For data set [12], the system named is ZIKV human strain PRVABC59 (2015/Puerto Rico). The data set can be described thus: Plaque reduction inhibition assay in Vero E6 cells, ZIKV PRVABC59. In kind it is cell-based, Zika virus (ZIKV). As to conditions: Vero E6 cells; Table 7, gossypol derivatives; read-out: ZIKV strains IC50, PRVABC59. As to the method: as §5

The term CC50 denotes the concentration that lowers cell viability or growth by half. A high value points to better tolerance by the cells. Take `CC(C)C[C@H](NC(=O)[C@H](Cc1ccccc1)NC(=O)c1cnccn1)B(O)O` [Bortezomib, bortezomib, reference compound]: the “Binding to ZIKV NS2B-NS3 protein (in words)” value on ZIKV NS2B-NS3 protease is listed as “bound to no ZIKV proteins tested”. Also, the midpoint of cytotoxicity with Vero E6 cells (3 days, CCK8, Table 1), the CC50, lay at 17 ± 0.2 µM. Moreover, the “Binding to ZIKV full-length E protein (in words)” value in [1] is given as “bound to no ZIKV proteins tested”. In addition, in data set [2], the “Binding to ZIKV EDIII protein (in words)” value is “bound to no ZIKV proteins tested”.

Usually IC50 stands for the point on the concentration scale where inhibition reaches its midpoint. Take `CCC(O)/N=C/c1c(O)c(O)c(C(C)C)c2cc(C)c(-c3c(C)cc4c(C(C)C)c(O)c(O)c(/C=N/C(O)CC)c4c3O)c(O)c12` (stereo not shown) [ST005138]: the IC50 in [3] amounted to 2.4 ± 0.27 µM; in [4] it was 2.29 ± 0.01 µM; in [5], 2.89 ± 0.12 µM; in data set [6], 3.05 ± 0.09 µM; in data set [7], 3.87 ± 0.54 µM; in data set [8], 2.52 ± 0.04 µM. Moreover, the half-inhibitory concentration (IC50) in [9] was 3.13 ± 0.29 µM; in [10], 2.18 ± 1.19 µM; in data set [11], 3.44 ± 0.18 µM; in data set [12] it was 3.89 ± 0.32 µM. For the same molecule, in the data set on Vero E6 cells (Table 7, gossypol derivatives), half-maximal cytotoxicity (CC50) was put at 22.82 ± 0.02 µM.

In the case of `Cc1cc2c(C(C)C)c(O)c(O)c3c2c(c1-c1c(C)cc2c(C(C)C)c(O)c(O)c4c2c1OC4N)OC3N` (stereo not shown) [ST069299], the half-inhibitory concentration (IC50) in [3] turned out to be 2.54 ± 0.44 µM; in data set [4], 2.34 ± 0.06 µM; in data set [5], 3.89 ± 0.24 µM; in [6] it was 3.85 ± 0.11 µM; in data set [7], 3.98 ± 0.54 µM; in data set [8], 4.88 ± 0.05 µM. Further, the IC50 amounted to 2.57 ± 0.2 µM in [9], 2.33 ± 0.1 µM in data set [10], 3.27 ± 0.25 µM in [11] and 3.33 ± 0.3 µM in [12]. Also, in the data set on Vero E6 cells (Table 7, gossypol derivatives), the CC50 was 25.9 ± 2.7 µM.

For `Cc1cc2nc[nH]c2c(N=Cc2c(O)c(O)c(C(C)C)c3cc(C)c(-c4c(C)cc5c(C(C)C)c(O)c(O)c(C=Nc6c(C)c(C)cc7nc[nH]c67)c5c4O)c(O)c23)c1C` [ST092971], the 50% inhibitory concentration (IC50) in data set [3] worked out at 5.16 ± 0.21 µM; in data set [4], 4.98 ± 0.01 µM; in data set [5] it was 13.5 ± 0.58 µM; in data set [6], 6.64 ± 0.27 µM; in [7], 6.72 ± 0.2 µM; in data set [8], 5.2 ± 0.37 µM. Also, the IC50 is 7.97 ± 0.17 µM in data set [9], 5.01 ± 0.36 µM in data set [10], 6.89 ± 0.05 µM in data set [11] and 9.1 ± 0.11 µM in data set [12]. This molecule also returned a CC50 in the data set on Vero E6 cells (Table 7, gossypol derivatives) of 72.1 ± 1.91 µM.
